Laboratory results as given in patent publication US8927500B2, “Peptidomimetic macrocycles” (Aileron Therapeutics, Inc., priority 2012, dated 2015).
Where a SMILES comes first, the peptide text is derived from it. Bridges are numbered along the chain shown (N, C = ends). [ ]: non-standard residue; d: D form. R8 = C=CCCCCCC[C@@](C)(N)C(=O)O; Cba = N[C@@H](CC1CCC1)C(=O)O; hLeu = CC(C)CC[C@H](N)C(=O)O; S5 = C=CCCC[C@](C)(N)C(=O)O; Nle = CCCC[C@H](N)C(=O)O

Experiments:
[1] = target: T1, MDMX (Homo sapiens, UniProt O15151); test: Competitive fluorescence polarization assay for MDMX; assay type: binding; settings: competitive FP assay; for IC50: read-out: IC50 (MDMX); for Ki: read-out: Ki (MDMX)
T1 sequence (O15151 1-125): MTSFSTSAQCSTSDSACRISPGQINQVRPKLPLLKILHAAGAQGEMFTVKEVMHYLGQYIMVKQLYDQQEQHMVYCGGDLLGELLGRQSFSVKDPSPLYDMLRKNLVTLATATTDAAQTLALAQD

[2] = tested on: Caspase 3; test: Caspase 3 detection assay in SJSA1 cells; assay type: cell-based; settings: 48 h, Caspase 3 activation over DMSO-treated cells; for caspase 0.3 uM: 0.3 uM peptide; for caspase 3 uM: 3 uM peptide; for caspase 10 uM: 10 uM peptide; for caspase 30 uM: 30 uM peptide
[3] = tested on: SJSA-1 cells; test: Cell lysis by peptidomimetic macrocycles (LDH release); assay type: cell-based; settings: 1 h at 37C
Description: On the day of the assay, media was exchanged with RPMI 1% FBS media, 90 uL of media per well.
10 mM stock solutions of the peptidomimetic macrocycles were prepared in 100% DMSO.
The negative control (non-lytic) sample was 0.5% DMSO alone and positive control (lytic) samples include 10 uM Melittin and 1% Triton X-100.
Cell plates were incubated for 1 hour at 37C. After the 1 hour incubation, the morphology of the cells is examined by microscope and then the plates were centrifuged at 1200 rpm for 5 minutes at room temperature. 40 uL of supernatant for each peptidomimetic macrocycle and control sample is transferred to clear assay plates.

[4] = target: MDM2 (Homo sapiens, UniProt Q00987); test: Competitive fluorescence polarization assay for MDM2; assay type: binding; settings: competitive FP assay, MDM2; for IC50: read-out: IC50 (MDM2); for Ki: read-out: Ki (MDM2)
Sequence of MDM2 (Q00987 1-125): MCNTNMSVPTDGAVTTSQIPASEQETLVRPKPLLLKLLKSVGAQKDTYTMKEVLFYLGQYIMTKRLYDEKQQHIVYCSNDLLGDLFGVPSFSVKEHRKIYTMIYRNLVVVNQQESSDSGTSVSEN

Row | Structure (SMILES) | IC50 [1] [nM] | Ki [1] [nM] | IC50 [4] [nM] | Ki [4] [nM] | caspase 0.3 uM [2] | caspase 3 uM [2] | caspase 10 uM [2] | caspase 30 uM [2] | 6.25 uM % Lysed cells (1 h LDH) [3] [%] | 25 uM % Lysed cells (1 h LDH) [3] [%] | 50 uM % Lysed cells (1 h LDH) [3] [%] | caspase 1 uM ([2]; 1 uM peptide)
1 | CC(=O)N[C@@H](CC(C)C)C(=O)N[C@H](C(=O)N[C@@H](Cc1ccccc1)C(=O)N[C@]1(C)CCCCCCC=CCCC[C@@](C)(C(=O)N[C@@H](C)C(=O)N[C@@H](Cc2c[nH]cn2)C(=O)N[C@@H](Cc2ccccc2)C(=O)N[C@@H](C)C(N)=O)NC(=O)[C@H](CC(C)C)NC(=O)[C@H](C)NC(=O)[C@H](C)NC(=O)[C@H](Cc2c[nH]c3ccccc23)NC(=O)[C@H](Cc2ccc(O)cc2)NC(=O)[C@H](C)NC1=O)[C@@H](C)O [compound 204] (Ac-LTF[R8]AYWAAL[S5]AHFA-NH2; staple 4-11) | 100 to 1000 | 10 to 100 | 10 to 100 | < 10 | 1 | 4 | 10 | 10 | 4 | 2 | 0 | 
2 | CC(=O)N[C@@H](CC(C)C)C(=O)N[C@H](C(=O)N[C@@H](Cc1ccccc1)C(=O)N[C@]1(C)CCCCCCC=CCCC[C@@](C)(C(=O)N[C@@H](C)C(=O)N[C@@H](C)C(=O)N[C@@H](C)C(=O)N[C@@H](C)C(=O)N[C@@H](C)C(=O)N[C@H](C)C(N)=O)NC(=O)[C@H](CC2CCC2)NC(=O)[C@H](CCC(N)=O)NC(=O)[C@H](C)NC(=O)[C@H](Cc2c[nH]c3ccccc23)NC(=O)[C@H](Cc2ccc(O)cc2)NC(=O)[C@H](CCC(=O)O)NC1=O)[C@@H](C)O (single isomer, unassigned) [compound 347] | 10 to 100 | 10 to 100 | 10 to 100 | < 10 | 2 | 5 | 8 | 29 | 0 | 0 | 0 | 3
3 | CCCC[C@H](NC(=O)[C@H](C)NC(=O)[C@H](C)NC(=O)[C@]1(C)CCCC=CCCCCCC[C@@](C)(NC(=O)[C@H](Cc2ccccc2)NC(=O)[C@@H](NC(=O)[C@H](CCC(=O)O)NC(C)=O)[C@@H](C)O)C(=O)N[C@@H](C)C(=O)N[C@@H](Cc2ccc(O)cc2)C(=O)N[C@@H](Cc2c[nH]c3ccccc23)C(=O)N[C@@H](C)C(=O)N[C@@H](CCC(N)=O)C(=O)N[C@@H](CC2CCC2)C(=O)N1)C(=O)N[C@@H](C)C(N)=O [compound 237] (Ac-ETF[R8]AYWAQ[Cba][S5]AA[Nle]A-NH2; staple 4-11) | 100 to 1000 | 10 to 100 | 10 to 100 | < 10 | 1 | 5 | 9 | 15 | 0 | 7 | 55 | 
4 | CC(=O)N[C@@H](CC(C)C)C(=O)N[C@H](C(=O)N[C@@H](Cc1ccccc1)C(=O)N[C@]1(C)CCCCCCC=CCCC[C@@](C)(C(=O)N[C@@H](CO)C(=O)N[C@@H](Cc2c[nH]c3ccccc23)C(=O)N[C@@H](C)C(N)=O)NC(=O)[C@H](CC(C)C)NC(=O)[C@H](CCC(N)=O)NC(=O)[C@H](C)NC(=O)[C@H](Cc2c[nH]c3ccccc23)NC(=O)[C@H](Cc2ccc(O)cc2)NC(=O)[C@H](C)NC1=O)[C@@H](C)O (single isomer, unassigned) [compound 120] | 100 to 1000 | 10 to 100 | 10 to 100 | < 10 | 2 | 11 | 20 | 30 | 0 | 0 | 6 | 
5 | CC[C@H](C)[C@H](NC(C)=O)C(=O)N[C@H](C(=O)N[C@@H](Cc1ccccc1)C(=O)N[C@]1(C)CCCCCCC=CCCC[C@@](C)(C(=O)N[C@@H](C)C(=O)N[C@@H](C)C(=O)N[C@H](C(=O)N[C@H](C)C(N)=O)[C@@H](C)CC)NC(=O)[C@H](CC(C)C)NC(=O)[C@H](CCC(N)=O)NC(=O)[C@H](C(C)C)NC(=O)[C@H](Cc2c[nH]c3ccccc23)NC(=O)[C@H](Cc2ccc(O)cc2)NC(=O)[C@H](Cc2ccccc2)NC1=O)[C@@H](C)O [compound 177] (Ac-ITF[R8]FYWVQL[S5]AAI[dA]-NH2; staple 4-11) | 100 to 1000 | 10 to 100 | 10 to 100 | < 10 | 1 | 1 | 8 | 20 | −1 | 0 | 1 | 
6 | CC[C@H](C)[C@H](NC(=O)[C@H](C)NC(=O)[C@H](C)NC(=O)[C@]1(C)CCCC=CCCCCCC[C@@](C)(NC(=O)[C@H](Cc2ccccc2)NC(=O)[C@@H](NC(=O)[C@H](CC(C)C)NC(C)=O)[C@@H](C)O)C(=O)N[C@@H](C)C(=O)N[C@@H](Cc2c[nH]cn2)C(=O)N[C@@H](Cc2c[nH]c3ccccc23)C(=O)N[C@@H](C)C(=O)N[C@@H](CCC(N)=O)C(=O)N[C@@H](CC(C)C)C(=O)N1)C(=O)N[C@H](C)C(N)=O [compound 170] (Ac-LTF[R8]AHWAQL[S5]AAI[dA]-NH2; staple 4-11) | 100 to 1000 | 10 to 100 | < 10 | < 10 | 1 | 1 | 16 | 20 | 2 | 1 | −1 | 

The next lines start with results.

Row | IC50 [1] [nM] | Ki [1] [nM] | IC50 [4] [nM] | Ki [4] [nM] | Structure (SMILES) | caspase 0.3 uM [2] | caspase 3 uM [2] | caspase 10 uM [2] | caspase 30 uM [2] | 6.25 uM % Lysed cells (1 h LDH) [3] [%] | 25 uM % Lysed cells (1 h LDH) [3] [%] | 50 uM % Lysed cells (1 h LDH) [3] [%] | caspase 1 uM ([2]; 1 uM peptide)
7 | 100 to 1000 | 10 to 100 | < 10 | < 10 | CC(=O)N[C@@H](CC(C)C)C(=O)N[C@H](C(=O)N[C@@H](Cc1ccccc1)C(=O)N[C@]1(C)CCCCCCC=CCCC[C@@](C)(C(=O)N[C@@H](CO)C(=O)N[C@H](C(=O)N[C@@H](CO)C(N)=O)C(C)C)NC(=O)[C@H](CC(C)C)NC(=O)[C@H](CCC(N)=O)NC(=O)[C@H](C)NC(=O)[C@H](Cc2c[nH]c3ccccc23)NC(=O)[C@H](Cc2ccc(O)cc2)NC(=O)[C@H](C)NC1=O)[C@@H](C)O [compound 121] (Ac-LTF[R8]AYWAQL[S5]SVS-NH2; staple 4-11) | 1 | 5 | 19 | 30 | 1 | 1 | 7 | 
8 | 100 to 1000 | 10 to 100 | < 10 | < 10 | CC(=O)N[C@@H](CC(C)C)C(=O)N[C@H](C(=O)N[C@@H](Cc1ccccc1)C(=O)N[C@]1(C)CCCCCCC=CCCC[C@@](C)(C(=O)N[C@@H](CO)C(=O)N[C@@H](C)C(=O)N[C@@H](CO)C(N)=O)NC(=O)[C@H](CC(C)C)NC(=O)[C@H](CCC(N)=O)NC(=O)[C@H](C)NC(=O)[C@H](Cc2c[nH]c3ccccc23)NC(=O)[C@H](Cc2ccc(O)cc2)NC(=O)[C@H](C(C)C)NC1=O)[C@@H](C)O (single isomer, unassigned) [compound 144] | 1 | 4 | 10 | 16 | 1 | −1 | 2 | 
9 | 100 to 1000 | 10 to 100 | < 10 | < 10 | CC(=O)N[C@@H](CC(C)C)C(=O)N[C@H](C(=O)N[C@@H](Cc1ccccc1)C(=O)N[C@]1(C)CCCCCC/C=C/CCC[C@@](C)(C(=O)N[C@@H](CO)C(=O)N[C@@H](C)C(=O)N[C@@H](C)C(N)=O)NC(=O)[C@H](CCC(C)C)NC(=O)[C@H](CCC(N)=O)NC(=O)[C@H](C)NC(=O)[C@H](Cc2c[nH]c3ccccc23)NC(=O)[C@H](Cc2ccc(O)cc2)NC(=O)[C@H](C)NC1=O)[C@@H](C)O [compound 115] (Ac-LTF[R8]AYWAQ[hLeu][S5]SAA-NH2; staple (E) 4-11) | 1 | 10 | 26 | 32 | 0 | −1 | 6 | 
10 | 10 to 100 | 10 to 100 | < 10 | < 10 | CC(=O)N[C@@H](CC(C)C)C(=O)N[C@H](C(=O)N[C@@H](Cc1ccccc1)C(=O)N[C@]1(C)CCCCCCC=CCCC[C@@](C)(C(=O)N[C@@H](CO)C(=O)N[C@H](C(=O)N[C@@H](CO)C(N)=O)C(C)C)NC(=O)[C@H](CC(C)C)NC(=O)[C@H](CCC(N)=O)NC(=O)[C@H](C)NC(=O)[C@H](Cc2c[nH]c3ccccc23)NC(=O)[C@H](Cc2ccc(O)cc2)NC(=O)[C@H](C(C)C)NC1=O)[C@@H](C)O (single isomer, unassigned) [compound 142] | 1 | 2 | 15 | 20 | 1 | 1 | 3 | 
